In patent US9656953B2, “Inhibition of cell proliferation” (University of South Florida, priority 2005, dated 2017):
Entries after “also recorded” stand apart in the source; their conditions may differ.

How the values were obtained:
[1] = test system: A549 cells stably expressing sh6; assay: BrdU incorporation, A549 Rb shRNA sh6; assay type: cell-based, human; conditions: 20 μM, Rb knock down
Description: (§1) Proliferation assays. Bromodeoxyuridine (BrdU) labeling kits were obtained from Roche Biochemicals (Indianapolis, Ind.). Cells were plated in poly-D-lysine coated chamber slides at a density of 10,000 cells per well and rendered quiescent by serum starvation for 24 hours. Cells were then re-stimulated with serum in the presence or absence of the indicated drugs for 18 h. S-phase cells were visualized by microscopy and quantitated by counting 3 fields of 100 in quadruplicate.
(§2) To further confirm that 3a requires a functional Rb to inhibit tumor cell proliferation, A549 cells (human epithelial lung carcinoma) were stably transfected with two different shRNA constructs (sh6 and sh8) to knock down Rb expression.

[2] = test system: A549 cells stably expressing sh8; assay: BrdU incorporation, A549 Rb shRNA sh8; assay type: cell-based, human; conditions: 20 μM, Rb knock down
Description: as §1, §2

[3] = test system: U87MG glioblastoma cell line; assay: BrdU incorporation, S-phase entry, U87MG; assay type: cell-based; conditions: null for p16 and PTEN
Description: as §1

A375 melanoma cell line = assay: BrdU incorporation, S-phase entry, A375; assay type: cell-based; conditions: V600E B-Raf
Description: as §1
A V600E mutation in the B-Raf oncogene is associated with 66% of melanomas and leads to an over-activation of phospho-Erk signaling. The A375 melanoma cell line harbors the V600E B-Raf mutation. Using the methods of the preceding examples, 3a was inhibited 58% of S-phase entry in this cell line.

PC3 prostate cell line = assay: BrdU proliferation assay, PC3; assay type: cell-based
Description: as §1
Prostate cell lines LNCaP and PC3 both contain mutations in K-Ras and PTEN genes.

[4] = test system: A549 cells infected with Ad-cyclin D; assay: BrdU incorporation, A549 infected with Ad-cyclin D; assay type: cell-based, human; conditions: 20 μM of 3a for 36 h
Description: as §1
To this end, A549 cells were infected with Ad-E2F1 or Ad-cyclin D, in the presence of 20 μM of 3a for 36 h. Ad-GFP infected cells were used as a control.

SK-MEL-5 cells = assay: Soft agar assay, SK-MEL-5; assay type: cell-based
Description: (§3) Soft Agar Assay. Soft agar assays were done in triplicate in 12-well plates (Corning, Corning N.Y.). First, the bottom layer of agar (0.6%) was allowed to solidify at room temperature. Next the top layer of agar was (0.3%) was mixed with 5,000 cells per well and the indicated drug. The drugs were added twice weekly in complete media to the agar wells. Colonies were quantified by staining with MTT (3-(4,5-Dimethylthiazol-2-yl)-2,5-diphenyltetrazolium bromide) 1 mg/mL for 1 hour at 37° C.
(§4) Experiments were also carried out to examine the effect of 3a in inhibiting the adherence-independent growth of cancer cells in soft agar.

SK-MEL-28 cells = assay: Soft agar assay, SK-MEL-28; assay type: cell-based
Description: as §3, §4

A549 tumors [5] = assay: A549 xenograft in nude mice; assay type: in vivo; conditions: for tumor size, A549 xenograft: vehicle 1039±128 mm^3
Description: Animal Studies. Nude mice (Charles River, Wilminton, Mass., USA) were maintained in accordance with Institutional Animal Care and Use Committee (IAUCUC) procedures and guidelines. A549 cells were harvested and resuspended in PBS, and then injected s.c. into the right and left flanks (10×10^6 cells per flank) of 8-week old female nude mice as reported previously (Sun 99). When tumors reached about 100-200 mm^3, animals were dosed intraperitoneally i.p. or orally by gavage with 0.1 mL solution once daily. […] The tumor volumes were determined by measuring the length (l) and the width (w) and calculating the volume (V=lw^2/2) as described previously (Sun 99). Statistical significance between control and treated animals were evaluated using Student's t-test.

A549 tumors [6] = assay: Immunohistochemistry staining of A549 xenograft tumors; assay type: in vivo, nude mice; conditions: A549 tumors at end of treatment
Excerpt: Immunohistochemistry staining. Upon termination of xenograft anti-tumor experiments, tumors were removed and fixed in 10% neutral-buffered formalin before processing into paraffin blocks. Tissue sections (5 micrometers (μm) thick) were cut from the blocks and stained with Ki-67, CD31, TUNEL, and phospho-Rb antibodies. Paraffin sections were rehydrated to PBS and processed using the following protocols. Sections were rinsed in dH2O, and then subjected to microwave ‘antigen retrieval’ for 20 minutes on 70% power, with a 1 minute cooling period after every 5 minutes, in 0.01 M sodium citrate, pH 6.0 (Janssen P J, Brinkmann A O, Boersma W J, Van der Kwast T H. J Histochem Cytochem 1994; 42(8):1169-75; Shi S R, Key M E, Kalra K L. J Histochem Cytochem 1991; 39(6):741-748). Sections were cooled for 20 minutes, rinsed 3 times in dH2O, twice in PBS and incubated in 5% normal goat serum for 30 minutes. Sections were incubated in primary antibody for 1 hour in 5% normal goat serum, rinsed 3 times in PBS. For color development the slides were treated with ABC kit (Vector Labs, Burlingame, Calif.) rinsed in dH2O, and developed using DAB as chromogen. After a final rinse in dH2O, sections were lightly counterstained in hematoxylin, dehydrated, cleared and coverslipped. Tissue sections were stained with hematoxylin and eosin (H&E) using standard histological techniques. Tissue sections were also subjected to immunostaining for CD31 (BD Biosciences, San Diego, Calif., USA) using the avidin-biotin peroxidase complex technique. Mouse monoclonal antibody was used at 1:50 dilution following microwave antigen retrieval (four cycles of 5 min each on high in 0.1 M citrate buffer). Apoptotic cells were detected using DeadEnd Colorimetric TUNEL system (Promega, Madison, Wis.).
At the end of the drug treatment, the A549 tumors were removed from the mice and fixed in formalin or snap frozen in liquid nitrogen for further histochemical analysis. The tumors were analyzed by immunohistochemistry staining with hematoxylin and eosin (H&E), TUNEL, Ki-67, phospho-Rb (807,811), and CD-31. […] Tumors were homogenized and lysates were prepared to assess the inhibition of Rb:Raf-1 interaction in vivo.

SMILES: Cl.N=C(N)SCc1ccc(Cl)cc1Cl [Compound 3a]
- S-phase entry (BrdU), A549 sh6 [1]: does not inhibit the proliferation; also recorded: no effect
- S-phase entry (BrdU), A549 sh8 [2]: does not inhibit the proliferation; also recorded: no effect
- S-phase entry, U87MG [3]: inhibited S-phase entry
- inhibition of S-phase entry, A375 (A375 melanoma cell line): 58%
- inhibition of proliferation, PC3 (PC3 prostate cell line): 35%
- rescue of anti-proliferative activity by cyclin D over expression [4]: only a partial effect
- adherence-independent growth in soft agar, SK-MEL-5 (SK-MEL-5 cells): significantly inhibited the growth
- adherence-independent growth in soft agar, SK-MEL-28 (SK-MEL-28 cells): significantly inhibited the growth
- A549 tumor growth in words, 3a (A549 tumors [5]; 50 mpk/day i.p. or 150 mpk/day oral): completely inhibit tumor growth; also recorded: did not grow
- tumor size, A549 xenograft (A549 tumors [5]; 50 mpk/day i.p.): 144±20 mm^3
- tumor size, A549 xenograft (A549 tumors [5]; 150 mpk/day oral): 148±32 mm^3
- apoptosis, TUNEL staining of tumors (A549 tumors [6]): dose dependent increase in apoptosis
- microvasculature, CD31 staining of tumors (A549 tumors [6]): reduction in microvasculature
- phospho-Rb staining of tumors (A549 tumors [6]): reduction in phosphorylation of Rb
- proliferation, Ki-67 staining of tumors (A549 tumors [6]): significant inhibition of proliferation
